Where a SMILES comes first, the peptide text is derived from it.
What follows are compounds tested against purified HLA-DRB1*0101 (Homo sapiens, UniProt P01903+P01911, A100R/D57E/F55L/F60I/F76Y/I96L/L162R/M171V/P40L/Q125E/R42F/V115G/Y59C) (assay: biochemical).
Format: binding

Question: With `CC[C@H](C)[C@H](NC(=O)[C@H](Cc1c[nH]cn1)NC(=O)[C@H](CCCNC(=N)N)NC(=O)[C@H](Cc1c[nH]cn1)NC(=O)[C@@H](NC(=O)[C@@H]1CCCN1C(=O)[C@H](Cc1ccccc1)NC(=O)CNC(=O)[C@@H](NC(=O)[C@H](CC(C)C)NC(=O)[C@H](Cc1c[nH]cn1)NC(=O)[C@H](CC(C)C)NC(=O)[C@@H](N)Cc1ccccc1)C(C)C)[C@@H](C)O)C(=O)N[C@@H](CCCNC(=N)N)C(=O)NCC(=O)O` [SABV GPC441-455] (H-FLHLVGFPTHRHIRG-OH) as the compound, how does the IC50 read?
Answer: The IC50 was 0.09 nM.

Question: How did the IC50 turn out when `CC[C@H](C)[C@H](NC(=O)[C@@H](N)Cc1ccccc1)C(=O)N[C@H](C(=O)N[C@@H](Cc1ccccc1)C(=O)N[C@@H](CC(C)C)C(=O)N[C@@H](CC(C)C)C(=O)N[C@@H](CC(C)C)C(=O)N[C@@H](C)C(=O)NCC(=O)N[C@@H](CCCNC(=N)N)C(=O)N[C@@H](CO)C(=O)N[C@@H](CS)C(=O)N[C@@H](CO)C(=O)N[C@@H](Cc1ccc(O)cc1)C(=O)N[C@@H](CCCCN)C(=O)O)C(C)C` [WWAV GPC46-60] (H-FIVFLLLAGRSCSYK-OH) was run?
Answer: The IC50 was 1.2 nM.

Question: `CC[C@H](C)[C@H](NC(=O)[C@H](CC(C)C)NC(=O)[C@H](Cc1c[nH]cn1)NC(=O)[C@H](CC(=O)O)NC(=O)[C@H](CO)NC(=O)[C@H](CCC(=O)O)NC(=O)[C@H](CC(C)C)NC(=O)[C@H](CC(C)C)NC(=O)[C@H](Cc1c[nH]c2ccccc12)NC(=O)[C@H](CCC(N)=O)NC(=O)[C@H](CC(N)=O)NC(=O)[C@H](CCCNC(=N)N)NC(=O)[C@@H](N)Cc1ccccc1)C(=O)N[C@@H](CO)C(=O)N[C@@H](CCC(=O)O)C(=O)O` [WWAV GPC386-400] (H-FRNQWLLESDHLISE-OH) was tested. Which IC50 did it give?
Answer: The IC50 was 1.6 nM.

Source: publication PMC2880318 (Immunome Research, 2010)
